Each block holds one compound with its values, some of them ahead of it.
Experiments:
[1] = test system: spontaneous motor activity; assay: Sedation: effects on spontaneous motor activity of rats in novel cages equipped with photocells (number of cage crossings); assay type: in vivo; conditions: rat
Excerpt: Representative compounds according to the invention have been tested for their effects on spontaneous motor activity occasioned by placing rats in novel cages equipped with photocells in order to determine the number of cage crossings. This is an art-recognised model of the sedation potential of a given test compound.

[2] = test system: apomorphine-induced stereotypy; assay: Extrapyramidal disorders: effect on apomorphine-induced stereotypy in the rat; assay type: in vivo
Excerpt: Representative compounds according to the invention have been tested for their effect on apomorphine-induced stereotypy in the rat. This is an art-recognised model of the potential to induce extrapyramidal side-effects.

[3] = molecular target: T1, human dopamine D4 receptor subtype (Homo sapiens, UniProt P21917); assay: [3H]-Spiperone binding (displacement), human dopamine D4 receptor subtype; conditions: selectivity ratio from Ki values for D4 and D2 subtypes
T1 sequence (P21917 1-419): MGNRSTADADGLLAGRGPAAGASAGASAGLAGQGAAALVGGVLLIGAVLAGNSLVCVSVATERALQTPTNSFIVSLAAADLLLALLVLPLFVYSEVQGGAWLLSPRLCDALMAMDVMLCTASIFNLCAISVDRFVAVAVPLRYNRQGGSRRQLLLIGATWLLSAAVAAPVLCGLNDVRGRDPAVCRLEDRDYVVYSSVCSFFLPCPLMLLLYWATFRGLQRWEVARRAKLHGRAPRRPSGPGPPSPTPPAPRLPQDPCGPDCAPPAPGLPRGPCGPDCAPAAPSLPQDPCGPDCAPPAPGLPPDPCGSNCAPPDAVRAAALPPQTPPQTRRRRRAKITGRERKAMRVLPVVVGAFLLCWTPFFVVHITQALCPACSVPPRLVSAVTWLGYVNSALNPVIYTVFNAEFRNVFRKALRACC

[4] = molecular target: T2, human dopamine D2 receptor subtype (Homo sapiens, UniProt P14416); assay: [3H]-Spiperone binding (displacement), human dopamine D2 receptor subtype; conditions: human dopamine D2 receptor subtype expressed in clonal cell lines
T2 construct: expressed in transfected cells
T2 sequence (P14416 whole entry): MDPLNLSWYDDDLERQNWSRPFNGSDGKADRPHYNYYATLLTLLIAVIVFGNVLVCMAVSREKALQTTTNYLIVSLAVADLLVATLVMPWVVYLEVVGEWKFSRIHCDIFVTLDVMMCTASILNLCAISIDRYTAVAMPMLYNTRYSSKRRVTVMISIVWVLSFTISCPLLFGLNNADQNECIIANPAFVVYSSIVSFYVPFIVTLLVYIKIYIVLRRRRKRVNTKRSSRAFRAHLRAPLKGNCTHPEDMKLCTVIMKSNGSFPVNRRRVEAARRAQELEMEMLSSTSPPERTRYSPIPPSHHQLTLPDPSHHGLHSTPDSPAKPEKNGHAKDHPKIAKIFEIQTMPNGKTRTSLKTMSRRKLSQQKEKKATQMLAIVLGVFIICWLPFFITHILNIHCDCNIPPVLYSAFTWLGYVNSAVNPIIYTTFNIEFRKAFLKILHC

Structure (SMILES): O=C(CCCN1CCC(O)(c2ccc(Cl)cc2)CC1)c1ccc(F)cc1 [haloperidol, reference compound]
sedation (spontaneous motor activity) ([1]; dose of 1 mg/kg): marked sedation | potential to elicit extrapyramidal side-effects (apomorphine-induced stereotypy) ([2]; doses of 0.5 and 1.0 mg/kg): significant potential to elicit extrapyramidal side-effects

D4:D2 ratio [3]: greater than 1150 | Ki [4]: > 1500 nM
Structure (SMILES): COc1ccc(N2CCN(Cc3c[nH]c4ncccc34)CC2)cc1 [Example 2, 3-(4-[4-Methoxyphenyl]piperazin-1-yl)methyl-1H-pyrrolo [2,3-b]pyridine]

Structure (SMILES): Clc1ccc(N2CCN(Cc3c[nH]c4ncccc34)CC2)cc1 [Example 5, 3-(4-[4-Chlorophenyl]piperazin-1-yl)methyl-1H-pyrrolo [2,3-b]pyridine]
sedation (spontaneous motor activity) ([1]; doses of up to 10-30 mg/kg): no evidence for sedation | potential to induce extrapyramidal side-effects (apomorphine-induced stereotypy) ([2]; doses up to 1.0 mg/kg): no potential to induce the extrapyramidal side-effects
